Consider 12 molecules from US5391751A, “2,2-dimethylchromene derivatives, process for their preparation and pharmaceutical compositions in which they are present” (priority 1987, dated 1995).

The subject of one series is isolated rat portal vein. Nature of the series: Isolated rat portal vein: inhibition of spontaneous contractile activities. Conditions: 0.25 h, 37° C., 15 min per concentration. The arrangement: species or system rat (male Sprague Dawley). The protocol:
Male Sprague Dawley rats (250-300 g) are stunned and then bled after their throats have been cut. The portal vein, ligated in situ at two points 15 mm apart, is isolated, cut longitudinally and then mounted vertically in an experimental cell containing a physiological solution, at 37° C., of the following composition (mmol/1): NaCl:137; KC1:5.4; MgCl2 :1.05; CaCl2 :[…]; NaH2 PO4 :12; NaHCO3 :[…]; glucose: 11.5, into which a mixture of gases containing 95% of oxygen and 5% of carbon dioxide is bubbled.
The vein is subjected to a tension of 500 mg. After a period of stabilization (about 1 h 30 min), the spontaneous contractile activities are recorded with the aid of an isometric sensor. Each measurement is performed successively on 4 preparations.
The results are expressed in the form of the molar concentrations which causes a 50 per cent inhibition of the spontaneous contractile activities (IC50).

The test system of series [1] is guinea-pig papillary muscle. Nature of the series: Guinea-pig papillary muscle: ventricular action potential (microelectrode method). The arrangement: species or system guinea-pig (male Albino Charles River). The conditions noted are these: for IC50: Cavia porcellus, 0.5 h, 36° C., 60 beats per minute, 30 minutes of perfusion per concentration, read-out: IC50: concentration which produces a 50 per cent reduction in the duration of the action potential. The protocol:
Male Albino Charles River guinea-pigs (300-400 g) are stunned and then bled after their throats have been cut. The heart is isolated and opened and the right papillary muscle is excised and then kept alive in an experimental cell containing a physiological solution at 36° C. (composition described above).
The preparation is stimulated with the aid of a bipolar electrode connected to a stimulator (frequency =60 beats per minute). The ventricular action potential is measured by the conventional microelectrode method. The characteristic parameters were measured on the action potentials (AP) before and after the introduction of the test product at 3 successive increasing concentrations (30 minutes of perfusion per concentration). The concentration which produces a 50 per cent reduction in the duration of the AP is indicated (IC50).

A further series has as its system vigilant dogs. Nature of the series: Antiarrhythmic activity on vigilant dogs (acute infarction). Format: in vivo, dog. The conditions noted are these: orally, 0.03 mg/kg and 0.1 mg/kg. The protocol:
The method used is the one described by Dupuis et al. (Br. J. Pharmacol., 1976, 58, p. 409), in which an acute infarction is caused by the insertion of a copper spiral into the coronary circulation, with the thorax closed off. The ECG is measured by telemetry and the extrasystoles are analyzed and counted automatically While the animal is being monitored by an internal television circuit. The products were administered orally to animals presenting at least 50 per cent of extrasystoles.

Series [2] relates to spontaneously hypertensive rats (SHR). Nature of the series: Antihypertensive activity on vigilant spontaneously hypertensive rats (SHR). Type of series: in vivo, rat (male SHR, Wistar strain). The protocol: The experiment is performed on male SHR (of the Wistar strain) aged between 11 and 12 weeks; under pentobarbital anesthesia, a catheter is implanted in a carotid artery on the day before the experiment. In the experiment, the diastolic pressure (DP) and systolic pressure (SP) of the vigilant animals are recorded continuously 1 hour before and up to 2 hours after administration of the product. The heart rate (HR) is determined from the pulse pressure and recorded continuously for the same time.
The products were administered orally in a volume of 2 ml per 100 g of body weight after suspension in a 5% aqueous solution of gum arabic.

A further series can be described thus: in vivo. Format: in vivo. The conditions noted are these: mouse, in vivo; mice, oral administration.
In the next series the test system is mice. Nature of the series: in vivo. Format: in vivo. Conditions: oral administration.
A short description of series [3]: Overall comparison of activity, toxicity and therapeutic index with reference product. Conditions: in the majority of the tests.

Broadly, the LD50 is the dose at which mortality reaches 50%.

Structures are written as SMILES.

Take `CC(=O)c1ccc2c(c1)[C@@H](n1ccccc1=O)[C@H](O)C(C)(C)O2` (relative stereo) [Product G, trans-6-acetyl-4-(1,2-dihydro-2-oxopyrid-1-yl)-2,2-dimethylchroman-3-ol]: in the series with isolated rat portal vein, the IC50 was determined as 0.19 µM.

Turning to `CC1(C)Oc2ccc([N+](=O)[O-])cc2[C@@H](n2ccccc2=O)[C@@H]1O` (relative stereo) [Product F, trans-4-(1,2-dihydro-2-oxopyrid-1-yl)-2,2-dimethyl-6-nitrochroman-3-ol], in the series with isolated rat portal vein, the IC50 was 0.016 µM.

Turning to `CC1(C)Oc2ccc(C#N)cc2[C@@H](n2ccccc2=O)[C@@H]1O` (relative stereo) [Product C, trans-6-cyano-4-(1,2-dihydro-2-oxopyrid-1-yl)-2,2-dimethylchroman-3-ol, reference compound], the IC50 was determined as 0.09 µM in the series on isolated rat portal vein and 20 µM in series [1].

`CC1(C)Oc2ccc(Cl)cc2[C@@H](n2ccccc2=O)[C@@H]1O` (relative stereo) [Product E, trans-6-chloro-4-(1,2-dihydro-2-oxopyrid-1-yl)-2,2-dimethylchroman-3-ol] had an IC50 in the series with isolated rat portal vein of 0.19 µM.

Regarding `CC1(C)C=C(n2ccccc2=O)c2cc(C#N)ccc2O1` [SR 44866, 6-Cyano-4-(1,2-dihydro-2-oxopyrid-1-yl)-2,2-dimethylchromene], the “Antiarrhythmic activity (reducing the number of extrasystoles or restoring a sinus rhythm)” value in the series with vigilant dogs is reported as “substantial antiarrhythmic activity”. Also, the “Duration of the effect” value was 90 min in series [2] (0.02 mg/kg p.o.) and > 120 min in series [2] (0.03 mg/kg p.o.). In addition, the “Maximum decrease in mean blood pressure (± s.e.)” value (“Maximum decrease” for short) was 34 ± 6 mm of mercury in series [2] (0.02 mg/kg p.o.) and 41 ± 6 mm of mercury in series [2] (0.03 mg/kg p.o.). Besides, the LD50 in the series “in vivo” is 1000 mg/kg. In the series on mice, this molecule displayed an LD0 of 500 mg/kg. The IC50 worked out at 0.0071 µM in the series on isolated rat portal vein and 1.5 µM in series [1]. In addition, the “Activity relative to product A” value in series [3] is “about 10 times”. In addition, in series [1] (versus product A), the “Concentration producing 50 per cent reduction in action potential duration: times lower than that of product A” value is on record as 10 times.

Turning to `CC1(C)C=C(N2CCCC2=O)c2cc(C#N)ccc2O1` [Product B, 6-cyano-4-(2-oxopyrrolidin-1-yl)-2,2-dimethylchromene], in the series on isolated rat portal vein, the IC50 is 0.07 µM.

As for `CC1(C)Oc2ccc(Br)cc2[C@@H](n2ccccc2=O)[C@@H]1O` (relative stereo) [Product D, trans-6-bromo-4-(1,2-dihydro-2-oxopyrid-1-yl)-2,2-dimethylchroman-3-ol], the IC50 in the series on isolated rat portal vein amounted to 0.25 µM.

On to `CC1(C)Oc2ccc(C#N)cc2[C@@H](N2CCCC2=O)[C@@H]1O` (relative stereo) [Product A, trans-6-cyano-4-(2-oxopyrrolidin-1-yl)-2,2-dimethyl-chroman-3-ol, reference compound], for which the figures for the “Duration of the effect” value in series [2] (0.10 mg/kg p.o.) and in series [2] (0.20 mg/kg p.o.) were 60 min and 90 min, respectively. In addition, the “Maximum decrease” value in series [2] (0.10 mg/kg p.o.) is reported as 30 ± 10 mm of mercury; in series [2] (0.20 mg/kg p.o.), 56 ± 11 mm of mercury. The median lethal dose (LD50) in the series “in vivo” lay within 500 to 1000 mg/kg. The IC50 came out at 0.068 µM with isolated rat portal vein and 16 µM in series [1].

For `CC1(C)C=C(n2ccccc2=O)c2cc(Cl)ccc2O1` [SR 45435, 6-Chloro-4-(1,2-dihydro-2-oxopyrid-1-yl)-2,2dimethylchromene], in series [2] (0.20 mg/kg p.o.), the “Duration of the effect” value is > 120 min and the “Maximum decrease” value is listed as 70 ± 8 mm of mercury. In the series on isolated rat portal vein, this molecule showed an IC50 of 0.008 µM.

`CC1(C)C=C(n2ccccc2=O)c2cc(Br)ccc2O1` [SR 45374, 6-Bromo-4-(1,2-dihydro-2-oxopyrid-l-yl)-2,2dimethylchromene]: in series [2] (0.10 mg/kg p.o.), the “Duration of the effect” value is > 120 min and the “Maximum decrease” value is 32 ± 6 mm of mercury. In the series with isolated rat portal vein, this molecule registered an IC50 of 0.0079 µM.

Regarding `CC1(C)C=C(n2ccccc2=O)c2cc([N+](=O)[O-])ccc2O1` [SR 45509, 4-(1,2-Dihydro-2-oxopyrid-1-yl)-2,2-dimethyl-6-nitrochromene], the IC50 in the series on isolated rat portal vein turned out to be 0.0022 µM.

`CC(=O)c1ccc2c(c1)C(n1ccccc1=O)=CC(C)(C)O2` [SR 45510, 6-Acetyl-4-(1,2-dihydro-2-oxopyrid-1-yl)-2,2-dimethylchromene] showed an IC50 in the series on isolated rat portal vein of 0.011 µM.
